In BindingDB's records for doi:10.1021/acs.jmedchem.0c00656 (2020):

Molecular target: T1, Vitamin D3 receptor A (Danio rerio, UniProt Q9PTN2)
T1 sequence (Q9PTN2 whole entry): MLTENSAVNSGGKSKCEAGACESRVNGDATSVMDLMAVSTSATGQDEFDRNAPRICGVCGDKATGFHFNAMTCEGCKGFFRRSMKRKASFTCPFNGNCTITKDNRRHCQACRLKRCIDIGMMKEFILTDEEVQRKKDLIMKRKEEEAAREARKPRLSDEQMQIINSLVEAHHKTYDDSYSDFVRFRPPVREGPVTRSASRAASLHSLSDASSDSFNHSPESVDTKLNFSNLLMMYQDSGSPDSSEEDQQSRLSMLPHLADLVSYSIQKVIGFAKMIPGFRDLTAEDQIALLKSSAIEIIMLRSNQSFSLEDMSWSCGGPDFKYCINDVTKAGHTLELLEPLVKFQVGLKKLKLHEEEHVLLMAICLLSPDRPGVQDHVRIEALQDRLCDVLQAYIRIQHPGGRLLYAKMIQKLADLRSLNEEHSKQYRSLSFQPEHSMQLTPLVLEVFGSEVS
Assay: Binding affinity to zebrafish VDR LBD assessed as Kd for fluorescein-labeled SRC1 NR2 peptide binding by micro-scale thermophoresis method

SMILES: C=C1/C(=C\C=C2/CCC[C@]3(C)[C@@H]([C@H](C)/C=C/[C@@H](O)C4(/C=C/C(=O)OCC)CC4)CC[C@@H]23)C[C@@H](O)C[C@@H]1O
- Kd: > 30 µM
